These results are taken from the METLIN SMRT retention time set (Domingo-Almenara et al. 2019).

The data set in a line: gradient 5% acetonitrile 3 min, to 50% in 2 min, to 85% in 15 min, held 3 min, 100 µL/min. The settings on record: column: Zorbax Extend-C18 2.1 x 50 mm; eluents: water / acetonitrile, 0.1% formic acid. An outline of the steps: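 The mobile phases were water and acetonitrile, each with 0.1% formic acid, pumped at 100 μL/min through a Zorbax Extend-C18 column (2.1 × 50 mm, 1.8 μm). Pure standards were injected as mixtures of ~100 molecules and detected by a quadrupole time-of-flight mass spectrometer in positive and negative ionization mode. Retention time came from computationally picked adduct peaks, each inspected by hand.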
Turning to `COCCN1CCC(N2CCN(S(=O)(=O)c3ccc(C(F)(F)F)cc3)CC2)C1=O` (centres undefined), the RP-LC retention time was determined as 625 s.

`CC(C)(C)c1noc(-c2ccc(-n3cnc(C(=O)N4CCCCCC4)c3)nc2)n1` returned an RP-LC retention time of 1030 s.

In turn, `CC(=O)Nc1ccc(-c2nc(-c3cccc(-c4ccnn4C)c3)no2)cc1` came in with an RP-LC retention time of 1140 s.

For `CC1CCN(S(=O)(=O)c2ccc3c(c2)CCCC(=O)N3CC(=O)N2CCc3ccccc32)CC1`, the RP-LC retention time came out at 1030 s. Then `Cc1cc(C(=O)Nc2nnc(SCC(=O)N3CCCc4ccccc43)s2)c(C)o1`, with 894 s; and `O=C(Nc1nc(C(=O)N2CCc3ccccc32)co1)c1cccs1`, with 730 s; and `CCCCOc1ccc(NC(N)=Nc2ccc(Cl)cc2)cc1`, with 778 s. Then `CCN(C(=O)C1CCN(C(=O)c2ccc(F)cc2)CC1)C1CCCCC1`, with 885 s. Then `COCCc1noc(C2CN(C(=O)C(C)C)C2)n1`, with 621 s; and `CCc1ccc(-c2nc(-c3ccc4c(c3)ncn4CCN3CCOCC3)no2)cc1`, with 685 s; and `CC(C)N(Cc1ccccc1)C(=O)C1CCCN(c2ncnc3c2nc2n3CCCCC2)C1` (centres undefined), with 905 s.

On to `Cc1c(C(=O)NCCOc2cccc(C(F)(F)F)c2)cccc1[N+](=O)[O-]`, for which the RP-LC retention time amounted to 893 s. Then `O=C(NC1CC1)c1n[nH]c2c1CCCC2`, with 636 s; and `Cc1ccc(-c2cc3c4nn(CC(=O)N5CCCC5)c(=O)n4ccn3n2)cc1C`, with 842 s; and `CC(=O)N1CCc2ccc(NS(=O)(=O)CCN3C(=O)CCCC3=O)cc21`, with 615 s. Then `COc1ccc(NC(=O)c2cc3c(=O)n(CC(C)C)c4ccccc4n3n2)c(C)c1`, with 1090 s. Then `CC(=O)c1cccc(NC(=O)c2ncn(-c3ccccc3)n2)c1`, with 731 s.

Compound `CCOC(=O)CCNC(=O)C1CCCN(c2nccnc2Oc2ccc(C)cc2)C1` (centres undefined) gave an RP-LC retention time of 884 s. Then `Cc1ccc(NC(=O)N2CCc3nc[nH]c3C2)cc1C`, with 606 s; and `CC(=O)N1CCc2cc(N3CC(C(=O)NC(C)c4ccc(C)cc4C)CC3=O)ccc21` (centres undefined), with 772 s. `Cc1ccc2c(c1)N(C(=O)C1CCN(S(=O)(=O)c3cccnc3)CC1)CCO2` displayed an RP-LC retention time of 823 s. Then `CCn1c(=O)c(C)nc2cc(-c3noc(C4CC(=O)N(c5ccc(C)cc5)C4)n3)ccc21` (centres undefined), with 884 s; and `CCn1cc(CCN2CCN(S(=O)(=O)c3cccs3)CC2)c2cccnc21`, with 962 s; and `Cc1ccc(-n2c(=O)c3c(cc(C)n3C)n(CC(=O)Nc3ccccc3Cl)c2=O)cc1`, with 900 s. Then `O=S(=O)(c1ccc2c(c1)OCCO2)N1CC[C@@H]2COCCN(Cc3cccnc3)[C@@H]2C1`, with 629 s; and `O=C([C@@H]1C[C@H](Oc2cccnc2)CN1C(=O)C1CCC1)N1CCCC1`, with 565 s.

`Cc1sc(C)c(S(=O)(=O)N2CCCc3ccccc32)c1-c1cc(C(F)(F)F)on1` came in with an RP-LC retention time of 1290 s. On to `O=c1c2c(ccn1Cc1nc(-c3ccsc3)no1)ccn2CC1CC1`, for which the RP-LC retention time came out at 980 s. Compound `CC1CCC(C(=O)Nc2cc3c(cc2N2CCCCC2)n(C)c(=O)c(=O)n3C)CC1` (centres undefined) yielded an RP-LC retention time of 1050 s. Then `COc1cccc(NC(=O)N2CC(c3nc(Cc4ccccc4)no3)C2)c1OC`, with 831 s; and `CC1(C(=O)N2CC(F)(F)C[C@H]2c2nc(-c3ccncc3)no2)CC1`, with 735 s. Then `COc1ccc(-c2cc(C(=O)Nc3ccccc3F)nn2C2CCS(=O)(=O)C2)cc1` (centres undefined), with 928 s. `COc1ccc(-c2cc(-c3ccccc3)c(-c3ccccc3)nn2)cc1` had an RP-LC retention time of 1100 s.

In turn, `COc1ccc(N2C=C(C#N)S(=O)(=O)c3ccc(F)cc32)cc1Cl` had an RP-LC retention time of 948 s. The compound `O=C(Nc1cc(C(F)(F)F)ccc1Cl)c1ccc(N2C(=O)CCC2=O)cc1` registered an RP-LC retention time of 821 s. Then `O=C(NCCc1ccc(Cl)cc1)C1CCCN(c2ncnc3c2oc2ccccc23)C1` (centres undefined), with 855 s. Then `O=C1CCN(C(=O)c2ccsc2)CCCCCCN1`, with 652 s; and `CCCCNC(=O)C1CCN(c2nc3ccc(-c4cncnc4)nc3s2)CC1`, with 788 s. Then `COc1ccc(S(=O)(=O)N2CCCC(c3nnnn3-c3ccccc3)C2)cc1` (centres undefined), with 905 s; and `O=C(NCCCN1CCC(Cc2ccccc2)CC1)C1CCCN(S(=O)(=O)N2CCCCC2)C1` (centres undefined), with 745 s; and `O=C(C1CCN(c2nnc(-c3ccccc3)o2)CC1)N1CCN(C2CCCCC2)CC1`, with 628 s.

With `CN1C(=O)c2ccccc2Oc2ccc(C(=O)NCc3ccc(Br)cc3)cc21`, the RP-LC retention time amounted to 955 s.

In turn, `COc1ccc2c(c1)C=C(C(=O)Nc1ccccc1F)C=CO2` gave an RP-LC retention time of 1020 s. Then `Cc1ccc(C)c(Cn2nc3ccc(S(=O)(=O)N4CCCCCC4)cn3c2=O)c1`, with 1090 s; and `COc1cc(NC(=O)Cc2cn3cc(Cl)ccc3n2)c(OC)cc1Cl`, with 675 s; and `CCOc1ncccc1CNC(=O)c1cnccn1`, with 600 s.

On to `CCCN1CC[C@@H]2c3cc(O)ccc3CC[C@@H]21`, for which the RP-LC retention time turned out to be 593 s.

As for `O=C(NCCC1CCN(C(=O)Nc2cc(F)cc(F)c2)CC1)c1ccco1`, the RP-LC retention time stood at 798 s. Then `Cc1ccc(Cn2nc3ccc(S(=O)(=O)N4CCCC4)cn3c2=O)cc1`, with 895 s; and `CCOc1nc2ccccc2nc1N1CCCC(C(=O)NC2CCCCC2)C1` (centres undefined), with 1170 s. Then `CCC1CN2C=Nc3oc(C)c(C(=O)Nc4cccc(Cl)c4)c3C2=N1` (centres undefined), with 695 s. Then `CCOc1ccc(-c2ccc(=O)n(CCc3nc(-c4ccc(SC)cc4)no3)n2)cc1`, with 1030 s; and `CCOc1ccc(OCC)c(N2C=C(C#N)S(=O)(=O)c3ccccc32)c1`, with 1000 s; and `Cc1cnn(Cc2nc(-c3ccc(NC(=O)c4cc(C)on4)cc3)oc2C)c1`, with 876 s. `Cc1ccc2c(C(=O)NCc3ccccc3C)cc(NC(=O)C(C)C)cc2n1` gave an RP-LC retention time of 671 s. Then `CC(C)Oc1ccc(CNC(=O)CCc2c(-c3ccc(Br)cc3)nc3ccccn23)cc1`, with 744 s. With `COC(=O)c1ccc(NC(=O)Cn2cccc(-c3nc(-c4ccc(OC)c(OC)c4)no3)c2=O)cc1`, the RP-LC retention time was found to be 1010 s. Then `COc1cccc(CNC(=O)Cn2c(-c3ccc(F)cc3)ncc(C#N)c2=O)c1`, with 873 s; and `O=C(Nc1ccc(Cl)cc1)C(=O)c1c[nH]c2ccccc12`, with 1030 s. Then `Cc1ccc(C(C)NC(=O)c2ccc(CN3CCN(C(C)C)C(=O)C3=O)cc2)c(C)c1` (centres undefined), with 761 s; and `O=C(Nc1ccc2c(c1)OCO2)c1c(O)c2cccnc2n(-c2ccccc2)c1=O`, with 663 s; and `O=S(=O)(c1ccccc1Cl)N1CC(F)(F)C[C@H]1COc1cccnc1`, with 731 s. Then `CCOc1ccccc1NC(=O)NCCc1cn(C)c2ncccc12`, with 733 s. As for `CCOC(=O)COc1cccc2c1CCN(Cc1ccc(Cl)cc1)C2=O`, the RP-LC retention time worked out at 934 s. In the case of `CCn1cc(-c2nc(C)c(C(=O)Nc3ccc(F)c(F)c3)s2)c2cccnc21`, the RP-LC retention time was determined as 1070 s. `COc1cn(CC(=O)NCC2CCCO2)c(CN2CCC(C)CC2)cc1=O` (centres undefined) returned an RP-LC retention time of 570 s.

In turn, `CC(C)c1cc(CNc2nc(Nc3cc(C4CC4)[nH]n3)cc(N3CCN(C)CC3)n2)on1` came in with an RP-LC retention time of 647 s. Then `O=C(Cc1csc(-c2ccccc2)n1)NCc1nc2ccccc2[nH]1`, with 647 s. Then `CC(=O)Nc1cccc(N2CC(C(=O)Nc3ccc(Br)c(C)c3)CC2=O)c1` (centres undefined), with 703 s; and `CCSc1ccccc1C(=O)NCC1CCN(C(=O)Oc2ccccc2)CC1`, with 863 s; and `CCOCCCNC(=O)NCCn1cnc2cc(C(=O)N3CCCC3)ccc21`, with 577 s. Then `O=C(NCCc1noc(C2CC2)n1)c1ccoc1`, with 664 s; and `CSc1ccc(C2C(C(=O)N3CCOCC3)=C(C)NC3=C2C(=O)CC(C)(C)C3)cc1` (centres undefined), with 696 s; and `N#Cc1cccc(NC(=O)CN2CCc3[nH]c4c(F)c(Cl)ccc4c(=O)c3C2)c1`, with 913 s.

As for `COC(=O)c1cc(OCC(=O)NCc2ccc3c(c2)OCO3)c2ccccc2n1`, the RP-LC retention time amounted to 739 s. `COc1ccc(C(=O)c2cnc3ccc(OC)cc3c2N2CCOCC2)cc1` yielded an RP-LC retention time of 677 s.

On to `CC(C)CNC(=O)CCc1nc2ccccc2n(CC(=O)NCCCc2ccccc2)c1=O`, for which the RP-LC retention time was 834 s. Then `CCOc1ccc(S(=O)(=O)N2CCN(c3cc(C)nc(NC4CCCCC4)n3)CC2)cc1`, with 839 s. `COc1ccc(-c2ncc3c(n2)CCN(S(=O)(=O)c2cccc(C(F)(F)F)c2)C3)cc1` registered an RP-LC retention time of 1110 s.
